Measurements as given in article PMC12192727, “Strategies to Develop Na,K-ATPase-α4 Inhibitors as Male Contraceptives” (International Journal of Molecular Sciences, 2025).

Columns and labels:
[1] = MDCK cell permeability; details: dog, MDCK
[2] = test system: MDCK cells; test: MDCK cell permeability; details: MDCK cell line, 0.5% BSA
[3] = Metabolic stability in rat hepatocytes; type: in vitro ADME; details: rat hepatocytes
Experimental: (§1) The in vitro metabolic half-life (t1/2) is calculated using the slope of the log−linear regression from the percentage of the parent compound remaining versus the time relationship (κ). The experimental details are reported in the Supporting Information (Tables S6 and S7).

[4] = test system: rat hepatocytes; test: Metabolic stability in rat hepatocytes; type: in vitro ADME
Experimental: as §1

[5] = test system: Salmonella typhimurium strains TA98 and TA100; test: Mini Ames test; type: cell-based; details: with and without S9
Experimental: The mutagenic potential of 45 was evaluated using the Mini Ames test, which measures reverse mutations at the histidine locus in Salmonella typhimurium strains TA98 and TA100. The assay was conducted with and without exogenous metabolic activation (β-naphthoflavone/phenobarbital-induced rat liver S9). The experimental details are reported in the Supporting Information).

[6] = test system: mouse sperm; test: Sperm motility after intraperitoneal administration to mice; type: in vivo; details: intraperitoneal 40 mg/kg for three days
Experimental: To determine whether our compounds had in vivo activity, we tested the effect of 45 after intraperitoneal administration to mice. Compound 45 was injected at a dose of 40 mg/kg for three days. This procedure is based on our previous protocol used for ouabain derivatives. After treatment for 3 days, the animals were sacrificed, sperm was isolated from the cauda epididymis, and sperm motility was assessed using CASA. Compound 45 inhibited total sperm motility by approximately 60% (Figure 9A).
Compound 45 was administered to mice by intraperitoneal injection at a dose of 40 mg/kg of body weight for three days. This protocol was used based on our previous results. At day 3 of treatment, the animals were sacrificed, and sperm was collected from the caudal section of the epididymis. Sperm was incubated under non-capacitating and capacitating conditions, and total and hyperactive sperm motility was determined using CASA.
Figure 9 Effect of compound 45 on total (A) and hyperactive (B) sperm motility in mice in vivo. 45 was administered via intraperitoneal injection at a dosage of 40 mg/kg of body weight for 3 days. Total and hyperactive sperm motility was assessed using sperm from the cauda epididymis. Hyperactive motility was evaluated after incubating the cells in a medium that supports sperm capacitation for 1 h. Sperm motility was analyzed using CASA. […]

[7] = LogD, 1-octanol/phosphate buffer pH 7.4; type: physicochemical
[8] = target: hERG channel (Homo sapiens, UniProt Q12809)
Sequence of hERG channel (Q12809 whole entry): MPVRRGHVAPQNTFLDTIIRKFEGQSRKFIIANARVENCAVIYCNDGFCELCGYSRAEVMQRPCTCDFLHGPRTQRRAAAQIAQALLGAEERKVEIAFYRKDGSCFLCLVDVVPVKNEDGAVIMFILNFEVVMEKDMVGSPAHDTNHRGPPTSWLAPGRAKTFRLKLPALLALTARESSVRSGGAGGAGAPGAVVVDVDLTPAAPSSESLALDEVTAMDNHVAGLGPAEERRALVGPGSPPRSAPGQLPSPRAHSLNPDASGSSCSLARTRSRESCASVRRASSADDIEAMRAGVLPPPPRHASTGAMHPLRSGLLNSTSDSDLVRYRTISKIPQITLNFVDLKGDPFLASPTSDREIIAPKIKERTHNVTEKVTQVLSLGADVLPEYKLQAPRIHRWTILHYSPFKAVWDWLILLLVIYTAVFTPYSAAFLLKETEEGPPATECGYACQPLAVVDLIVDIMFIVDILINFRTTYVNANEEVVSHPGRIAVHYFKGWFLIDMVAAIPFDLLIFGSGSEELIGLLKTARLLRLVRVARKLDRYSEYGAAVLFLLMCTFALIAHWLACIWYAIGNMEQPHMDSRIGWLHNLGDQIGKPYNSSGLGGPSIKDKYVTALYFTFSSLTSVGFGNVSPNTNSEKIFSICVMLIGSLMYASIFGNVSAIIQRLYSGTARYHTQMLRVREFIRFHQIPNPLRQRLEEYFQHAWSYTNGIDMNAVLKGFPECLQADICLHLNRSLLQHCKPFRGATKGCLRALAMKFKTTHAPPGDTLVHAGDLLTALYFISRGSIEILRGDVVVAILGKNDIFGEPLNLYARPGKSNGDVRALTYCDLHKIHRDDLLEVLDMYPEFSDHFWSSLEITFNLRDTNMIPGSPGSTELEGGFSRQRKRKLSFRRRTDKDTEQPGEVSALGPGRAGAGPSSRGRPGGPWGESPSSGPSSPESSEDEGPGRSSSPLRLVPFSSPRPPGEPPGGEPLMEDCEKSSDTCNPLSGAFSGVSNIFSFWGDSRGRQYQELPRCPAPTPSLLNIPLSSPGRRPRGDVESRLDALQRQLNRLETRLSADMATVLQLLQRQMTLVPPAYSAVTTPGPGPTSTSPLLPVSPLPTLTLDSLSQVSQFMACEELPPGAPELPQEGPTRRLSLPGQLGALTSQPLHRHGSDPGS

C[C@]12CC[C@H]3[C@@H](CC=C4C[C@@H](O)CC[C@@]43C)[C@@H]1CC[C@@H]2c1cn(Cc2ccccc2)nn1 [Compound 13, (3S,8S,9S,10R,13S,14S,17S)-17-(1-Benzyl-1H-1,2,3-triazol-4-yl)-10,13-dimethyl-2,3,4,7,8,9,10,11,12,13,14,15,16,17-tetradecahydro-1H-cyclopenta[a]phenanthren-3-ol]
Papp B→A [1]: 0.78 ×10⁻⁶ cm/s | efflux ratio [1]: 1.24 | Papp A→B ([1]; Papp (A-B), MDCK cells, BSA 0% for controls, 0.5% for 13): 0.63 ×10⁻⁶ cm/s | Papp A→B ([1]; Permeability Papp (A-B), MDCK cell line, 0.5% BSA): 0.6 ×10⁻⁶ cm/s | Permeability Papp (A-B) [2]: poor

CC12CCC(=O)C=C1CCCC2n1cc(-c2ccccc2)nn1 (stereo not shown) [Compound 45, 4a-Methyl-5-(4-phenyl-1H-1,2,3-triazol-1-yl)-4,4a,5,6,7,8-hexahydronaphthalen-2(3H)-one]
hepatocyte CLint at 1 μM ([3]; read-out: In vitro Clint): 72.2 µL/min/1e6 cells | half-life at 1 µM ([3]; rat, hepatocytes, read-out: In vitro T1/2): 19.2 min | CLint scaled at 1 µM ([3]; rat, hepatocytes, read-out: Scale-up Clint): 338 mL/min/kg | Remaining Percentage (%) ([4]; rat boiled hepatocytes, 0 min): 100.00% | Remaining Percentage (%) ([4]; rat boiled hepatocytes, 15 min): 101.65% | Remaining Percentage (%) ([4]; rat boiled hepatocytes, 30 min): 104.87% | Remaining Percentage (%) ([4]; rat boiled hepatocytes, 60 min): 104.47% | Remaining Percentage (%) ([4]; rat boiled hepatocytes, 90 min): 104.04% | Remaining Percentage (%) ([4]; rat boiled hepatocytes, 120 min): 104.50% | Hepatic Extraction Ratio (E) ([4]; rat hepatocytes): 0.86 | Predicted hepatic CL ([4]; rat hepatocytes): 47.44 mL/min/kg | Remaining Percentage (%) ([4]; rat hepatocytes, 0 min): 100.00% | Remaining Percentage (%) ([4]; rat hepatocytes, 15 min): 51.55% | Remaining Percentage (%) ([4]; rat hepatocytes, 30 min): 26.35% | Remaining Percentage (%) ([4]; rat hepatocytes, 60 min): 9.77% | Remaining Percentage (%) ([4]; rat hepatocytes, 90 min): 3.36% | Remaining Percentage (%) ([4]; rat hepatocytes, 120 min): 1.25% | Metabolic Stability in Hepatocytes (60 min), compound remaining ([4]; rat, 60 min): 10% | Mini Ames [5]: Mini Ames ^e: negative | Hyperactive sperm motility in vivo ([6]; capacitating medium 1 h): reduced | Inhibition of total sperm motility in vivo ([6]; cauda epididymis sperm, CASA): approximately 60% | logD [7]: 2.66 | hERG IC50 [8]: weak inhibitor
